# Laboratory results: the supplement of paper PMC10331698
# ± gives the standard deviation of the averaged measurements.
# Columns and labels:
# Experiment in all cases: level (log10 ratio to DMSO vehicle control); higher = higher biomarker level / cell amount than vehicle control
# [1] = compound: C=C(C)C(=O)OCCC(F)(F)C(F)(F)C(F)(F)C(F)(F)C(F)(F)C(F)(F)F [6:2 Fluorotelomer methacrylate]; details: in DMSO
# Method: (§1)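 BioMAP Diversity Plus panel of 12 human primary cell co-culture systems (3C, 4H, LPS, SAg, BT, BF4T, BE3C, CASM3C, HDF3CGF, KF3CT, MyoF, Mphg). Compounds were added 1 h before stimulation and left for 24 h (MyoF 48 h; BT 72 h for soluble read-outs or 6 d for IgG). Biomarkers were read by ELISA, cytotoxicity by SRB, PBMC viability and proliferation by Alamar Blue. Each well value was divided by the mean of 8 DMSO control wells on the same plate and log10 transformed; duplicate blinded samples were tested at 4 concentrations.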
# [2] = compound: C=CC(=O)OCC(F)(F)C(F)(F)C(F)(F)COC(=O)C=C [1H,1H,5H,5H-Perfluoro-1,5-pentanediol diacrylate]; details: 6700 nM; in DMSO
# Method: as §1
# [3] = compound: COC(=O)C(F)(F)C(F)(F)OC(F)(C(F)(F)F)C(F)(F)OC(F)=C(F)F [Methyl perfluoro(3-(1-ethenyloxypropan-2-yloxy)propanoate)]; details: in DMSO
# Method: as §1
# [4] = compound: FC(F)(F)C(F)(F)C(F)(F)C(F)(F)C(F)(F)C(F)(F)C(F)(F)I [1-Iodopentadecafluoroheptane]; details: in DMSO
# Method: as §1
# [5] = compound: FC(F)(F)C(F)(F)C(F)(F)C(F)(F)C(F)(F)C(F)(F)CC1CO1 [3-(Perfluorohexyl)-1,2-epoxypropane]; details: in DMSO
# Method: as §1
# [6] = compound: FC(F)(F)C(F)(F)C(F)(F)CC1CO1 [1H,1H-Heptafluorobutyl epoxide]; details: in DMSO
# Method: as §1
# [7] = compound: FC(F)(F)C(F)(F)C(F)(F)CI [Heptafluorobutyl iodide]; details: in DMSO
# Method: as §1
# [8] = compound: FC(F)(F)C(F)(F)CNCC(F)(F)C(F)(F)F [Bis(1H,1H-perfluoropropyl)amine]; details: in DMSO
# Method: as §1
# [9] = compound: NC(=O)C(F)(F)C(F)(F)C(F)(F)C(F)(F)C(N)=O [Octafluoroadipamide]; details: in DMSO
# Method: as §1
# [10] = compound: NC(=O)C(F)(F)C(F)(F)C(F)(F)C(F)(F)F [Nonafluoropentanamide]; details: in DMSO
# Method: as §1
# [11] = compound: NC(=O)C(F)(F)C(F)(F)C(F)(F)C(F)F; details: in DMSO
# Method: as §1
# [12] = compound: NS(=O)(=O)C(F)(F)C(F)(F)C(F)(F)C(F)(F)C(F)(F)C(F)(F)F [Perfluorohexanesulfonamide]; details: in DMSO
# Method: as §1
# [13] = compound: O=C(O)C(F)(F)C(F)(F)C(F)(F)C(F)(F)C(F)(F)C(F)(F)C(F)(F)C(F)(F)C(F)(F)C(F)F [11-H-Perfluoroundecanoic acid]; details: in DMSO
# Method: as §1
# [14] = compound: O=C(O)C=CC(F)(C(F)(F)F)C(F)(F)F [3-(Perfluoroisopropyl)-2-propenoic acid]; details: in DMSO
# Method: as §1
# [15] = compound: O=S(=O)(Cl)C(F)(F)C(F)(F)C(F)(F)C(F)(F)C(F)(F)C(F)(F)C(F)(F)C(F)(F)F [Perfluoro-1-octanesulfonyl chloride]; details: in DMSO
# Method: as §1
# [16] = compound: O=S(=O)(F)C(F)(F)C(F)(F)C(F)(F)C(F)(F)C(F)(F)C(F)(F)C(F)(F)C(F)(F)F [Perfluorooctanesulfonyl fluoride]; details: in DMSO
# Method: as §1
# [17] = compound: O=S(=O)(O)C(F)(F)C(F)(F)C(F)(F)C(F)(F)C(F)(F)C(F)(F)C(F)(F)C(F)(F)C(F)(F)C(F)(F)F [Sodium perfluorodecanesulfonate]; details: in DMSO
# Method: as §1
# [18] = compound: O=S(=O)(O)CCC(F)(F)C(F)(F)C(F)(F)C(F)(F)C(F)(F)C(F)(F)F [6:2 Fluorotelomer sulfonic acid]; details: in DMSO
# Method: as §1
# [19] = compound: OCC(F)(F)C(F)(F)C(F)(F)CO [Hexafluoroamylene glycol]; details: in DMSO
# Method: as §1
test system,measurement,setting,value
SAg:PBMC Cytotoxicity,level (log10),[1]; 6700 nM,-0.0305 ± 0.057
same,level (log10),[1]; 20000 nM,0.0085 ± 0.0021
same,level (log10),[1]; 60000 nM,0.015 ± 0.0099
same,level (log10),[2],-0.111 ± 0.0035
same,level (log10),[3]; 6700 nM,-0.0115 ± 0.025
same,level (log10),[3]; 20000 nM,0.028 ± 0.044
same,level (log10),[4]; 6700 nM,-0.0165 ± 0.028
same,level (log10),[4]; 20000 nM,0.0265 ± 0.026
same,level (log10),[5]; 6700 nM,0.01 ± 0.037
same,level (log10),[5]; 20000 nM,-0.0055 ± 0.011
same,level (log10),[5]; 60000 nM,0.025 ± 0.0071
same,level (log10),[6]; 6700 nM,-0.0095 ± 0.0092
same,level (log10),[6]; 20000 nM,-0.005 ± 0.013
same,level (log10),[6]; 60000 nM,0.0345 ± 0.011
same,level (log10),[7]; 6700 nM,-0.015 ± 0.025
same,level (log10),[7]; 20000 nM,0.0035 ± 0.005
same,level (log10),[7]; 60000 nM,0.003 ± 0.0099
same,level (log10),[8]; 6700 nM,0.01 ± 0.013
same,level (log10),[8]; 20000 nM,-0.011 ± 0.0028
same,level (log10),[8]; 60000 nM,-0.0055 ± 0.037
same,level (log10),[9]; 6700 nM,0.004 ± 0.014
same,level (log10),[9]; 20000 nM,-0.0095 ± 0.0021
same,level (log10),[9]; 60000 nM,0.01 ± 0.027
same,level (log10),[10]; 6700 nM,0.009 ± 0.02
same,level (log10),[10]; 20000 nM,-0.0005 ± 0.013
same,level (log10),[10]; 60000 nM,0.0295 ± 0.018
same,level (log10),[11]; 6700 nM,0.018 ± 0.016
same,level (log10),[11]; 20000 nM,-0.008 ± 0.011
same,level (log10),[11]; 60000 nM,0.0425 ± 0.067
same,level (log10),[12]; 6700 nM,0 ± 0.05
same,level (log10),[12]; 20000 nM,0.0415 ± 0.021
same,level (log10),[12]; 60000 nM,0.121 ± 0.023
same,level (log10),[13]; 6700 nM,0.002 ± 0.045
same,level (log10),[13]; 20000 nM,0.0035 ± 0.021
same,level (log10),[14]; 6700 nM,-0.0035 ± 0.0078
same,level (log10),[14]; 20000 nM,0.0015 ± 0.0035
same,level (log10),[14]; 60000 nM,-0.005 ± 0.017
same,level (log10),[15]; 6700 nM,0.01 ± 0.025
same,level (log10),[15]; 20000 nM,0.0045 ± 0.016
same,level (log10),[15]; 60000 nM,0.067 ± 0.0085
same,level (log10),[16]; 6700 nM,-0.0155 ± 0.029
same,level (log10),[16]; 20000 nM,0.0105 ± 0.022
same,level (log10),[16]; 60000 nM,0.011 ± 0.027
same,level (log10),[17]; 1500 nM,0.008 ± 0.027
same,level (log10),[17]; 4400 nM,-0.002 ± 0.0071
same,level (log10),[17]; 13000 nM,-0.037 ± 0.0028
same,level (log10),[17]; 40000 nM,0.017 ± 0.0071
same,level (log10),[18]; 6700 nM,0.0105 ± 0.00071
same,level (log10),[18]; 20000 nM,0 ± 0.0071
same,level (log10),[18]; 60000 nM,0.0305 ± 0.029
same,level (log10),[19]; 6700 nM,0.0135 ± 0.00071
same,level (log10),[19]; 20000 nM,0.008 ± 0.014
same,level (log10),[19]; 60000 nM,0.005 ± 0.03
